According to publication PMC10141076, “Steroids and Fatty Acid Esters from Cyperus sexangularis Leaf and Their Antioxidant, Anti-Inflammatory and Anti-Elastase Properties” (Molecules, 2023):
“And” between values parts separate entries of the source, which are not always exact repeats. Equal values may be shown once. Marks after values point to notes of the source that are not given here.

Key:
[1] = DPPH spectrophotometric assay (radical scavenging); details: mean ± SEM, n = 3; 30 min, 37 °C, 515 nm
Description: This was performed by following a previously reported conventional method, with some modifications. Here, 0.5 mL of 0.1Mm DPPH radical in methanol was added to 0.5 mL of serially diluted CS-isolated compounds and L-ascorbic acid at 100.00, 50.00, 25.00, 12.50 and 6.25 µg/mL concentration range in triplicate. The reaction mixture was incubated in the dark at 37 °C for 30 min. The absorbance was measured at 515 nm on a microplate reader. The percentage inhibition of the radical was calculated thus: % DPPH inhibition=(ABScontrol−ABSsample/ABScontrol)×100 where ABSsample = Absorbance of test sample, while ABScontrol = Absorbance of negative control (2% DMSO).

[2] = Nitric oxide (NO) inhibition assay (sodium nitroprusside/Griess); details: mean ± SEM, n = 3; 540 nm
Description: The inhibitory effect of the isolated compounds against the NO radical was investigated using the method described by Jimoh et al.. The compounds were prepared in varying concentrations from 100.00–6.25 µg/mL. They were added to 0.2 Mm (2 mL) of sodium nitroprusside in triplicates.

[3] = Ferric reducing antioxidant power (FRAP) assay; details: ascorbic acid equivalent; mean ± SEM, n = 3; 700 nm
Description: The reducing antioxidant capacity of each isolated compound was evaluated according to the method of Kumar and Pandey, with some modifications. The compounds were dissolved in 2% DMSO and added to the mixture containing 0.25 mL of phosphate buffer (0.2 M; pH 6.6) and 0.25 mL of potassium ferricyanide [K3Fe(CN)6] (1% w/v). Standard compounds used were L (+)-Ascorbic acid. The resulting mixture was incubated at 50 °C for 20 min, followed by the addition of 0.25 mL of CCl3COOH (10% w/v) and then centrifuged at 3000 rpm for 10 min. The upper layer of the solution was mixed with 1 mL of 2% DMSO and the same amount and 0.5 mL of FeCl3 (0.1%, w/v). The experiment was conducted in triplicate, and absorbance was measured at 700 nm on a microplate reader against a blank sample of only phosphate buffer. Thus, the ferric reducing power of the isolated compounds at 100.00, 50.00, 25.00, 12.50 and 6.25 µg/mL concentration in methanol were determined as ascorbic acid equivalent (AAE) from the calibration curve of the positive control (L-ascorbic acid).

egg albumin = assay: In vitro anti-inflammatory test: egg albumin denaturation (EAD) assay; type: biochemical, chicken
Description: The test was carried out using the egg albumin denaturation assay method reported by Chatterjee et al.. […] The mixture was incubated at 37 °C for 15 min away from direct light and thereafter boiled at 70 °C for 5 min in a thermostatic water bath. The resulting mixture was cooled, and the absorbance was measured at 655 nm on a microplate reader.

[4] = target: T1, porcine pancreatic elastase (PPE) (Sus scrofa, UniProt P00772); assay: Anti-elastase assay (release of p-nitroaniline from N-succinyl-ala-ala-ala-p-nitroanilide); type: biochemical; details: n = 3; text says elastase in HaCaT cells, method uses PPE; read-out: Anti-Elastase Activity (IC50 ± SD) (converted)
T1 construct: purchased Sigma
T1 sequence (P00772 27-266): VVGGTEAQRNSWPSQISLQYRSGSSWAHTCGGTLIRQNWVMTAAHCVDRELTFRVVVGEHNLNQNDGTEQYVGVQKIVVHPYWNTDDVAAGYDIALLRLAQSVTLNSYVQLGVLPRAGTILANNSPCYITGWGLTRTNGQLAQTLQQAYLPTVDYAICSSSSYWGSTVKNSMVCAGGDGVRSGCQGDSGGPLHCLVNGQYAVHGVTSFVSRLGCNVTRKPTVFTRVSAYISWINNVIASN
Description: All reagents, solvents, silica gel for TLC and silica gel for column chromatography were purchased from Sigma-Aldrich (Pty) Ltd. (Johannesburg, South Africa) and Merck (Pty) Ltd. (Johannesburg, South Africa) through a licenced local supplier, Shalom Laboratories and Supplies, South Africa. Antioxidant absorbance were measured on a 680-Bio-Rad Microplate Reader (Serial Number 14966, Irvine, CA, USA), while the anti-elastase activity was monitored on a Perkin Elmer VICTOR Nivo microplate reader ([…]). Isolated compounds were analyzed with a 600 MHz Bruker Biospin GmbH spectrometer (Bruker, Rheinstetten, Germany) and a 400 MHz VARIAN NMR spectrometer (Agilent Technologies Inc., Santa Clara, CA, USA). Chemical shift (δ) was recorded in part per million (ppm). The spectrum range was set at 0–14 ppm for 1H NMR, while that of ^13C NMR was set at 0–220 ppm. Tetramethyl silane was used as the internal standard and compounds were read in deuterated chloroform and benzene, as well as benzene-d6 in trifluorotoluene (TFT). High-resolution mass spectrometry (HRMS) was performed with a Waters API Q-TOF Ultima spectrometer (Waters Corporation, Manchester, UK) situated in Stellenbosch University, Stellenbosch, South Africa. […]
The ability of each isolated compound to inhibit porcine pancreatic elastase (PPE) (Sigma) was determined by measuring the release of p-nitroaniline from N-succinyl-ala-ala-ala-p-nitroanilide spectrophotometrically at 405nm according to the method of Bieth et al. and modified according to the method of Fibrich et al.. The reaction mixture contained 100mM Tris buffer (pH 8.0), 0.5M HCl; the test sample was serially diluted in DMSO to yield seven concentrations ([…]) to which PPE ([…]) was added and incubated for 15 min, followed by the addition of N-succinyl-ala-ala-ala-p-nitroanilide (4mM). The change in the absorbance of the reaction mixture was measured for 15 min, from which the rate was obtained. One unit of elastastolytic activity is defined as the release of 1 µM of p-nitroaniline/min. Ursolic acid was included as the positive drug control, as well as a vehicle control containing 2% DMSO and two negative controls (one in which no enzyme was added and the other in which no substrate was added). An IC50, or concentration at which 50% of the enzyme activity is inhibited was calculated using GraphPad Prism 4 (GraphPad Software, San Diego, CA, USA).

Row | Structure (SMILES) | DPPH (IC50 ± SEM) [1] | NO (IC50 ± SEM) [2] | FRAP [3] | IC50 [4] [µM] | further results
1 | O=C1O[C@H]([C@@H](O)CO)C(O)=C1O [ASC, L-ascorbic acid, reference compound] | 8.92 ± 1.26 ^a µg/mL | 21.89 ± 1.32 ^a µg/mL | – | – | –
2 | CC[C@H](C=C[C@@H](C)[C@H]1CC[C@H]2[C@@H]3CC=C4CC(O)CC[C@]4(C)[C@H]3CC[C@]12C)C(C)C (stereo partly shown) [Compound 1, stigmasta-5,22-dien-3-ol] | 38.18 ± 2.30 ^bc µg/mL | 68.56 ± 4.03 ^bc µg/mL | 303.58 ± 10.33 µgAAE/mg and 303.58 ± 10.33 ^c µgAAE/mg | > 121 | inhibition of egg albumin denaturation (egg albumin; at 6.25 µg/mL (lowest concentration)): 51.03 ± 10.36%; inhibition of egg albumin denaturation (egg albumin; at 6.25 µg/mL (lowest concentration), listed as stigmasterol): 50%; inhibition of egg albumin denaturation (egg albumin; at 25 µg/mL (median concentration)): up to 70%
3 | C=CC(C)C1CCC2C1CCC1C3CCCCC3CCC12 (stereo not shown) [Compound 2, 17-(1-methyl-allyl)-hexadecahydro-cyclopenta[a] phenanthrene] | 57.63 ± 1.62 ^e µg/mL | 105.73 ± 7.48 ^d µg/mL | 196.21 ± 13.79 ^a µgAAE/mg | > 349 | inhibition of egg albumin denaturation, rank in words (egg albumin; across all concentrations (100–6.25 µg/mL), p < 0.05): least active among all the compounds tested
4 | CC[C@H](CC[C@@H](C)[C@H]1CC[C@H]2[C@@H]3CC=C4C[C@@H](O)CC[C@]4(C)[C@H]3CC[C@]12C)C(C)C [Compound 3, β-sitosterol] | – | – | – | > 121 | –
5 | CCCCCCCCCCCC(=O)O [Compound 4, dodecanoic acid] | 35.99 ± 2.13 ^b µg/mL | 65.04 ± 3.20 ^b µg/mL | 245.94 ± 22.81 ^b µgAAE/mg | > 250 | –
6 | CCCCCCCCCCCCCCCCCCC(=O)OCC [Compound 5, ethyl nonadecanoate] | 43.82 ± 1.44 ^c µg/mL | 69.74 ± 3.06 ^bc µg/mL | 243.40 ± 19.72 ^b µgAAE/mg | ≥ 153 | –
7 | CCCCCCCCCCCCCCCCCC(=O)OCC [Compound 6, ethyl stearate] | 49.86 ± 2.29 ^d µg/mL | 95.99 ± 4.93 ^d µg/mL | 190.92 ± 11.68 ^a µgAAE/mg | ≥ 160 | inhibition of egg albumin denaturation, rank in words (egg albumin; at concentrations above 6.25 µg/mL): least activity among the fatty acid compounds
8 | C[C@H]1[C@H](C)CC[C@]2(C(=O)O)CC[C@]3(C)C(=CC[C@@H]4[C@@]5(C)CC[C@H](O)C(C)(C)[C@@H]5CC[C@]43C)[C@H]12 [Ursolic acid, ursolic acid, reference compound] | – | – | – | 54.3 | –
9 | CCCCCCCCCCCCCCCCCCC(=O)OCC [ethyl nonadecanoate] | – | – | – | > 153 | –
10 | CCCCCCCCCCCCCCCCCC(=O)OCC [ethyl stearate] | – | – | – | > 160 | –
